Measurements from ChEMBL document CHEMBL1141987, “Two new irreversible inhibitors of dihydrodipicolinate synthase: diethyl (E,E)-4-oxo-2,5-heptadienedioate and diethyl (E)-4-oxo-2-heptenedioate” (Bioorg Med Chem Lett, 2005).

Experiments:
[1] = molecular target: T1, 4-hydroxy-tetrahydrodipicolinate synthase (Escherichia coli K-12) (UniProt P0A6L2); experiment: Inhibitory concentration against Escherichia coli dihydrodipicolinate synthase after 15 minutes
T1 sequence (whole entry): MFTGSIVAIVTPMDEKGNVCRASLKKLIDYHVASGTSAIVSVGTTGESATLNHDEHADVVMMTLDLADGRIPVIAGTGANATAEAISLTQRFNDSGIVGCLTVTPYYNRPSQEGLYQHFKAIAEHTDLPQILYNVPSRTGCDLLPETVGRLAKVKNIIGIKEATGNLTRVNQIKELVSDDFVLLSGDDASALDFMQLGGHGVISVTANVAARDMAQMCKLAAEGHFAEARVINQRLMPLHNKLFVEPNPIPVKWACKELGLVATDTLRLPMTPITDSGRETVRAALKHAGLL

[2] = molecular target: T1, 4-hydroxy-tetrahydrodipicolinate synthase (Escherichia coli K-12); experiment: Inhibitory concentration against Escherichia coli dihydrodipicolinate synthase after 30 minutes

Concentration [1]: 50 nM
Concentration [2]: 50 nM
Compound: CCOC(=O)/C=C/C(=O)CCC(=O)OCC
